{
  "source": "patent US11179433B2",
  "about": "“Mouth freshener” (ARI HEALTHCARE PVT. LTD., priority 2014, dated 2021)",
  "assay_type_in_all_cases": "cell-based",
  "conditions_in_all_cases": "control, concentration not given, 100 μl per well",
  "key": {"Escherichia coli": {"tested_on": "Escherichia coli", "assay": "Anti-microbial activity, agar well diffusion (zone of inhibition)", "description": "(§1) The anti-microbial activity and the anti-fungal activity of the mouth freshener composition of the present disclosure was determined by testing it on Escherichia coli, Staphylococcus aureus and Candida albicans as the test microorganisms in comparison with a product presently available in the market (herein forward referred to as Product X), methanol and a standard drug i.e. Chlorhexidine. Escherichia coli, Staphylococcus aureus were grown in Luria-Bertani broth (LB broth) and Candida albicans was grown in Potato Dextrose broth (PD broth) until the growth reached approximately 10^6 cfu (colony forming units) per ml culture was attained. 100 μl of this culture was used for the antimicrobial assay. The 1-4% solution of powder extract was prepared by dissolving the extract in methanol as a solvent and all these solutions were store at 4° C. temperature till further use. Mueller-Hinton (HiMedia) agar plates were used to carry out the testing of the anti-microbial activity and Potato dextrose (Himedia) agar plates were used to carry out the testing of the anti-fungal activity of the mouth freshener composition. The dried surface of a Mueller-Hinton agar plate was inoculated by spreading 100 μl culture suspension on the agar surface. […]"}, "Staphylococcus aureus": {"tested_on": "Staphylococcus aureus", "assay": "Anti-microbial activity, agar well diffusion (zone of inhibition)", "description": "as §1"}, "Candida albicans": {"tested_on": "Candida albicans", "assay": "Anti-fungal activity, agar well diffusion (zone of inhibition)", "description": "as §1"}},
  "data": [
    {"smiles": "[H]/N=C(\\N/C(=N/[H])NCCCCCCNC(=N)NC(=N)Nc1ccc(Cl)cc1)Nc1ccc(Cl)cc1", "note": "[Chlorhexidine]", "values": [
      {"measurement": "Zone of inhibition", "setting": "Escherichia coli", "value": 15, "unit": "mm"},
      {"measurement": "Zone of inhibition", "setting": "Staphylococcus aureus", "value": 18, "unit": "mm"},
      {"measurement": "Zone of inhibition", "setting": "Candida albicans", "value": 19, "unit": "mm"}
    ]}
  ]
}
